This note sets out measurements from US9073874B2, “Cyclic N,N′-diarylthioureas and N,N′-diarylureas-androgen receptor antagonists, anticancer agent, method for preparation and use thereof” (priority 2010, dated 2015).

SMILES strings stand for the structures. “Also recorded” adds a separate entry of the source.

Data set [1] is described as follows: Distribution in plasma, brain and prostate after single IV administration in rats. Type of data set: in vivo. Particulars: for concentration at 30 min / concentration at 120 min: rat, plasma; for concentration at 30 min / concentration at 120 min / Brain / Plasma / Prostate: Mean ± SD, n = 3.
Data set [2] has as its system CYP 3A. The experiment in a line: CYP 3A induction assay. Type of data set: in vitro ADME.
Data set [3] concerns the target T1, androgen receptors (Homo sapiens, UniProt P10275, T878A).
T1 construct: host or cells: LNCaP
T1 sequence (P10275 1-920 T878A): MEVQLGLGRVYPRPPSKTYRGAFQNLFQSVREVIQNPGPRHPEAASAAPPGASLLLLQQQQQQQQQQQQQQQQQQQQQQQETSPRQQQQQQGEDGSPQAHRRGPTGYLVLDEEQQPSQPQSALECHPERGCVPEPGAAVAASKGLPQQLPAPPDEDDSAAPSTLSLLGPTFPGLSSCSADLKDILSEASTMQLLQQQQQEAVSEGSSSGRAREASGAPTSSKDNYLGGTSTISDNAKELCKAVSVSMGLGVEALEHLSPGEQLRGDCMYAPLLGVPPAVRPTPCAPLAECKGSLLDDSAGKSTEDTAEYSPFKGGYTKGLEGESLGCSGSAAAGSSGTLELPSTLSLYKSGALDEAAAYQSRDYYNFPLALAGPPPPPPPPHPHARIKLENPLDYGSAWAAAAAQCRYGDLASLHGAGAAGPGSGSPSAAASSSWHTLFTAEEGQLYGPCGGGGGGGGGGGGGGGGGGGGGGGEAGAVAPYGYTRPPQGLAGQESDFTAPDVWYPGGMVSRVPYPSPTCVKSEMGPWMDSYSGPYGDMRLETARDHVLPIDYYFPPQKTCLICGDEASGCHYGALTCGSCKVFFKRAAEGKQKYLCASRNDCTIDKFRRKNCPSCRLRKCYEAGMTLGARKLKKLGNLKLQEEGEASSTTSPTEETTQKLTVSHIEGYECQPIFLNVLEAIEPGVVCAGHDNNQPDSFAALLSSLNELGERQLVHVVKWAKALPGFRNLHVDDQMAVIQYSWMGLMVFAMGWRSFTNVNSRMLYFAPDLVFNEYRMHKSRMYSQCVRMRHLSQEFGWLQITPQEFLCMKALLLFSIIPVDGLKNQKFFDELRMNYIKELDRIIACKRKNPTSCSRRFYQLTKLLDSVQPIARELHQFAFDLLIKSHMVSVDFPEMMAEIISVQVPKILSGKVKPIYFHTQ
The data set can be described thus: cell-based. Type of data set: cell-based. The protocol:
The expression of PSA was measured in the culture medium 24 hours thereafter (FIG. 1). […] The LnCAP cells were cultured for a further 5 days and the number of viable cells was then calculated.
FIG. 1. Inhibition of DHT-stimulated PSA expression in LnCAP cells.
These cells are sensitive towards 5-a-dihydrotestosterone (DHT) and in the presence thereof produce cancer markers (PSA). […] Before the experiment, the cells were washed and suspended in the same medium, in which, however, a serum treated with charcoal for removal of hormone traces was used instead of calf serum. The cells (10 000 in total) were embedded into the wells of 96-well plates at 100 μl per well and left for 4 days in an incubator at 37° C. […] The cells were incubated for a further 5 days under the same conditions. Then, samples of the supracellular medium were taken and analyzed for PSA. The test was carried out according to the protocol recommended by the manufacturer of the kit for PSA measurement (Alpha Diagnostic International, USA). After wetting the wells containing PSA antibodies attached to their bottoms, 25 μl of test compounds and 100 μl of PSA antibodies pre-conjugated to horseradish peroxidase were added successively to each well. Following a 30-minute incubation at room temperature, the content of each well was removed, the wells were washed several times, and 100 μl of a peroxidase chromogenic substrate was then added to each well. […] Based on data about the dependence of DHT-related reduction of PSA synthesis on the concentration of test compounds, dose-response curves were plotted to determine IC50 values. Said values were used for calculating apparent inhibition constants (Ki) for compounds of general formula I according to Cheng-Prusoff equation. [Cheng, Y., Prusoff, W. H. “Relationship between the inhibition constant (Ki) and the concentration of inhibitor which causes 50 percent inhibition (IC50) of an enzymatic reaction”. Biochem Pharmacol.

Data set [4] is described as follows: Maximum tolerated dose, peroral once a day for 5 days in CD1 male mice. The format is in vivo. The protocol:
The maximum tolerated doses (MTD) of novel antagonists (R)-1 and their analog Ia were determined in experiments on CD1 male mice at peroral administration once a day for 5 days in doses of 10, 30, and 100 mg/kg. The compound was dissolved in sterile water with addition of Tween 80. Sterile water with Tween 80 was given to control animals (Placebo group). Animals' body weight and mortality rate were estimated. Statistical comparison of groups was carried out according to a non-parametric ANOVA test using Statistica software.

Data set [5] has as its system LnCAP-Z2 tumors. The data set can be described thus: Prostate cancer xenograft model, SCID male mice bearing LnCAP-Z2 tumors. The format is in vivo. Particulars: analysis of individual tumors, 21 days oral. The protocol: SCID male mice bearing LnCAP-Z2 tumors (mean volume˜160-190 mm^3) were treated daily by oral gavage with vehicle or drugs for 21 days. Individual tumor volume change by the end of the study. Percentage of change in individual tumor volumes as compared to the start of treatment.
FIG. 6. […] SCID male mice bearing LnCAP-Z2 tumors (mean volume˜160-190 mm^3) treated daily by oral gavage with vehicle or drugs for 21 days. Individual tumor volume change by the end of the study. Percentage of change in individual tumor volumes compared to the start of treatment.
FIG. 7. […] SCID male mice bearing LnCAP-Z2 tumors (mean volume˜160-190 mm^3) treated daily by oral gavage with vehicle or drugs for 21 days. (A)—Tumor weight by the end of the study. Mean±SEM are presented. […] (B)—PSA expression by the end of the study. Plasma samples were collected 24 hours after the last drug administration. Mean±SEM are presented.
The antitumor efficacy of (R)-1 was tested in a xenograft model of prostate cancer (FIGS. 6 and 7). Male immunodeficient mice harboring LnCAP-Z2 tumors were treated orally for 21 days with either vehicle or (R)-1 at 20 and 50 mg/kg once daily and at 20 mg/kg twice daily. […] Twenty-four hours after last treatment, blood samples were collected from all animals and used for measuring PSA expression and drug concentration. In addition, the concentration of drugs and Ki67 expression were measured in tumor samples.

[6] abbreviates: CD1 male mice, peroral, 100 mg/kg.

The term MTD denotes the highest dose tested that stayed within the study's limit of toxicity. By Ki is commonly meant the equilibrium dissociation constant of an inhibitor or competing ligand from its target.

Consider `CNC(=O)c1ccc(N2C(=S)N(c3cnc(C#N)c(C(F)(F)F)c3)C(=O)C23CCC3)cc1F` [III], for which, in data set [1] (single IV 1 mg/kg, 30 min), the concentration at 30 min amounted to 251 ± 29 ng/mL, the Brain/Plasma came out at 0.96 ± 0.03, the Prostate/Plasma came to 1.94 ± 0.24 and the Brain stood at 241 ± 21 ng/g. In data set [1] (single IV 1 mg/kg, 30 min), this molecule yielded a Plasma of 251 ± 29 ng/mL and a Prostate of 487 ± 73 ng/g. In data set [1] (single IV 1 mg/kg, 120 min), the concentration at 120 min is 153 ± 10 ng/mL, the Brain/Plasma was 1.15 ± 0.27, the Prostate/Plasma was determined as 3.15 ± 0.94 and the Brain was 176 ± 31 ng/g. In data set [1] (single IV 1 mg/kg, 120 min), this molecule returned a Plasma of 153 ± 10 ng/mL and a Prostate of 482 ± 120 ng/g. In data set [2] (Concentration 1 μM), the “Positive control, % (CYP 3A induction)” value is recorded as 16.3 ± 2.5%. Further, the “Positive control, % (CYP 3A induction)” value in data set [2] (Concentration 10 μM) is 102.7 ± 13.0%.
As to `CNC(=O)c1ccc(N2C(=S)N(c3ccc(C#N)c(C(F)(F)F)c3)C(=O)C23CCOC3)cc1F` (racemic) [compound 1, 4-[3-(4-Cyano-3-trifluoromethyl-phenyl)-4-oxo-2-thioxo-7-oxa-1,3-diaza-spiro[4.4]non-1-yl]-2-fluoro-N-methyl-benzamide], the “AR antagonistic activity (in words)” value in data set [3] was “comparable with that of Ia”.
Turning to `CNC(=O)c1ccc(N2C(=S)N(c3ccc(C#N)c(C(F)(F)F)c3)C(=O)C2(C)C)cc1F` [Ia, MDV3100], in data set [1] (single IV 2 mg/kg, 30 min), the concentration at 30 min was 263 ± 19 ng/mL, the Brain is listed as 164 ± 19 ng/g, the Plasma amounted to 263 ± 19 ng/mL and the Prostate worked out at 102 ± 4 ng/g. In data set [1] (single IV 2 mg/kg, 120 min), this molecule came in with a concentration at 120 min of 377 ± 153 ng/mL, a Brain of 152 ± 31 ng/g, a Plasma of 377 ± 153 ng/mL and a Prostate of 124 ± 27 ng/g. In data set [4] (CD1, mouse, in vivo, oral, male CD-1 mice, peroral once a day for 5 days), the maximum tolerated dose (MTD) at 5 days is approximately 30 mg/kg. Further, in data set [4] (CD1 male mice, 100 mg/kg, 5th day), the “p, body weight versus Placebo group” value was 0.002. In addition, in data set [4] (setting [6]), the “body weight versus control animals (Placebo group)” value was “statistically differed” and the mortality entry was “One animal died”. Moreover, the mortality result in data set [4] (CD1 male mice, peroral, doses below 100 mg/kg (10 and 30 mg/kg)) was “did not lead to death; also recorded: did not cause death”. In data set [4] (male CD-1 mice, peroral once a day for 5 days), the “maximum tolerated dose (MTD)” value is “about 30 mg/kg”. Besides, in data set [2] (Concentration 1 μM), the “Positive control, % (CYP 3A induction)” value stood at 10.0 ± 2.0%. The “Positive control, % (CYP 3A induction)” value in data set [2] (Concentration 10 μM) was determined as 73.3 ± 6.8%. For the same molecule, in data set [5], the “effect on individual tumors (in words)” value is reported as “stimulate tumor regression”.
`CNC(=O)c1ccc(N2C(=S)N(c3ccc(C#N)c(C(F)(F)F)c3)C(=O)[C@@]23CCOC3)cc1F` [(S)-1]: the inhibition constant Ki in data set [3] was 215 nM. In other words, the sub-micromolar range.
